According to ChEMBL document CHEMBL5634193, “Discovery of CVN293, a Brain Permeable KCNK13 (THIK-1) Inhibitor Suitable for Clinical Assessment” (ACS Med Chem Lett, 2024):
pIC50: −log10 of the molar value. In brackets after ≈: the same amount, converted by molar mass.

How the values were obtained:
[1] = molecular target: T1, Potassium channel subfamily K member 13 (Homo sapiens, UniProt Q9HB14); assay: Inhibition of human KCNK13 transfected in HEK293 cells; format: cell-based
T1 sequence (Q9HB14 whole entry): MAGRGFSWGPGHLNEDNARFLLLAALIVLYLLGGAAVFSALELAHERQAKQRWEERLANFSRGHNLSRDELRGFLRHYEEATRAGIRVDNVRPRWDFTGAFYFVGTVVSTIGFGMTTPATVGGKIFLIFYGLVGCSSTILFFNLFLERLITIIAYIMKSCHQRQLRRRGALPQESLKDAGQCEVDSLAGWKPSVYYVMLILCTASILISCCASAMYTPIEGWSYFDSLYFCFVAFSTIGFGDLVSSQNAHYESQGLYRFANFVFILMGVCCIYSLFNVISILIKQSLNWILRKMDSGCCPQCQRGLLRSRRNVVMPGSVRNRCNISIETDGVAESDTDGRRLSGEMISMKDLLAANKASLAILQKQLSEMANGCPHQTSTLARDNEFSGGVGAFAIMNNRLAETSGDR

[2] = Metabolic stability in human liver microsomes assessed as intrinsic clearance; format: ADME, Microsome; settings: read-out: CLH
[3] = Metabolic stability in rat liver microsomes assessed as intrinsic clearance; format: ADME, Microsome; settings: read-out: CLH
[4] = Metabolic stability in mouse liver microsomes assessed as intrinsic clearance; format: ADME, Microsome; settings: read-out: CLH
[5] = Kinetic aqueous solubility of compound at pH 7.4; format: physicochemical; settings: buffer, read-out: Kinetic_solubility
[6] = Protein binding in mouse brain assessed as unbound fraction by equilibrium dialysis; format: ADME, tissue-based
[7] = Protein binding in mouse plasma assessed as unbound fraction by equilibrium dialysis; format: ADME, cell-free
[8] = molecular target: T2, Potassium channel subfamily K member 13 (Mus musculus, UniProt Q8R1P5); assay: Inhibition of mouse KCNK13 transfected in HEK293 cells; format: cell-based
T2 sequence (Q8R1P5 whole entry): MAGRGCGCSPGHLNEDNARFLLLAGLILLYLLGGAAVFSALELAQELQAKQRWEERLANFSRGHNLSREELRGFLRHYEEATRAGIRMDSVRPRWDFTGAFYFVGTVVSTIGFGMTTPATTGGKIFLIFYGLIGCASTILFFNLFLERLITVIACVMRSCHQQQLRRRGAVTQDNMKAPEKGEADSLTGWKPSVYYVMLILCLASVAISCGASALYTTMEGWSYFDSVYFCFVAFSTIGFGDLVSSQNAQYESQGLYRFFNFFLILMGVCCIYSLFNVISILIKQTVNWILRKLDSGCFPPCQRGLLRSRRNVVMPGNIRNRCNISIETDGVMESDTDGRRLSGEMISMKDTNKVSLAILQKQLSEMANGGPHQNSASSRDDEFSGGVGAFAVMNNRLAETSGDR

[9] = Ratio of unbound drug concentration in brain to plasma C57BL/6 mouse at 10 mg/kg, po measured after 4 hrs by LC-MS/MS analysis; format: ADME, organism-based; settings: brain and plasma, read-out: K(p,uu,brain)
[10] = Unbound drug concentration in C57BL/6 mouse brain at 10 mg/kg, po measured after 4 hrs by LC-MS/MS analysis; format: ADME, organism-based; settings: in vivo
[11] = Unbound drug concentration in C57BL/6 mouse plasma at 10 mg/kg, po measured after 4 hrs by LC-MS/MS analysis; format: ADME, organism-based; settings: in vivo
[12] = Ratio of drug concentration in brain to plasma C57BL/6 mouse at 10 mg/kg, po measured after 4 hrs by LC-MS/MS analysis; format: ADME, organism-based; settings: brain and plasma, read-out: BPR

Row | SMILES | pIC50 [1] | microsomal CLint [2] [µL/min/mg] | microsomal CLint [3] [µL/min/mg] | microsomal CLint [4] [µL/min/mg] | solubility kinetic [5] [µM] | fraction unbound [6] | fraction unbound [7] | pIC50 [8] | Kp uu at 4 h [9] | Cp(f) [10] [nM] | Cp(f) [11] [nM] | Kp at 4 h [12]
1 | CC(=O)Nc1nonc1-c1nc2ccccc2n1Cc1ccncc1 | < 4.66 | 34 | 45 |  |  |  |  |  |  |  |  | 
2 | Nc1nonc1-c1nc2ccc(F)cc2n1Cc1ccncc1 | 7.47 | 37 | 10 | 58 | < 0.3 |  |  |  |  |  |  | 
3 | Nc1nonc1-c1nc2cccc(F)c2n1Cc1ccc(C(F)(F)F)nn1 | 7.08 | 18.3 |  | 245 | 1.6 (≈ 0.607 µg/mL) | 0.024 | 0.035 | 7.13 |  |  |  | 
4 | N#Cc1ccc(Cn2c(-c3nonc3N)nc3cccc(F)c32)nn1 | 7.30 | 9.6 | 40 | 37 | 8.4 (≈ 2.82 µg/mL) | 0.064 | 0.071 | 7.46 |  |  |  | 
5 | Nc1nonc1-c1nc2cccc(F)c2n1Cc1cnccn1 | 7.33 | 21 | 68 | 50 | 10 (≈ 3.11 µg/mL) | 0.077 | 0.138 | 7.21 | 2.2 | 18 | 9 | 0.56
6 | Nc1nonc1-c1nc2ccccc2n1Cc1ccncc1 |  | 24 | 56 |  |  |  |  |  |  |  |  | 
7 | c1ccc2c(c1)nc(-c1ccn[nH]1)n2Cc1ccncc1 | 5.04 |  |  |  |  |  |  |  |  |  |  | 
8 | Nc1nonc1-c1nc2cc(F)ccc2n1Cc1ccncc1 | 7.38 | 19 | 14 | 28 | < 0.3 |  |  |  |  |  |  | 
9 | Nc1nonc1-c1nc2ccc(F)c(F)c2n1Cc1cccnn1 | 7.30 | < 9.6 | 15.4 | < 9.6 | 3.9 (≈ 1.28 µg/mL) | 0.097 | 0.161 |  | 0.7 | 56 | 80 | 1.17
10 | c1ccc2c(c1)nc(-c1cocn1)n2Cc1ccncc1 | 5.53 |  |  |  |  |  |  |  |  |  |  | 
11 | Nc1nonc1-c1nc2cccc(F)c2n1Cc1ccnnc1 | 7.30 | 9.6 | 31.6 | 13.9 | 10.4 (≈ 3.24 µg/mL) | 0.128 | 0.188 |  | 1.9 | 18 | 9 | 0.68
12 | Nc1nonc1-c1nc2cccc(F)c2n1Cc1ccncn1 | 7.34 | 10 | 77 | 30 | 9.9 (≈ 3.08 µg/mL) | 0.091 | 0.111 |  |  |  |  | 
13 | Nc1nonc1-c1nc2cccc(F)c2n1Cc1cncnc1 | 7.31 | 10 | 24 | 18 | 6.5 (≈ 2.02 µg/mL) | 0.057 | 0.129 | 7.59 |  |  |  | 

The remaining lines, values ahead:

Row | pIC50 [1] | microsomal CLint [2] [µL/min/mg] | microsomal CLint [3] [µL/min/mg] | microsomal CLint [4] [µL/min/mg] | solubility kinetic [5] [µM] | fraction unbound [6] | fraction unbound [7] | pIC50 [8] | Kp uu at 4 h [9] | Cp(f) [10] [nM] | Cp(f) [11] [nM] | Kp at 4 h [12] | SMILES
14 | < 4.66 |  |  |  |  |  |  |  |  |  |  |  | Nc1ncccc1-c1nc2ccccc2n1Cc1ccncc1
15 | 7.26 | 25 | 27 | 74 | < 0.3 |  |  |  |  |  |  |  | Nc1nonc1-c1nc2c(F)cccc2n1Cc1ccncc1
16 | 7.34 | 14 | 22 | 66 | 3.7 (≈ 1.15 µg/mL) |  |  |  |  |  |  |  | Nc1nonc1-c1nc2cccc(F)c2n1Cc1ccncc1
17 | 5.46 |  |  |  |  |  |  |  |  |  |  |  | c1ccc2c(c1)nc(-c1ncc[nH]1)n2Cc1ccncc1
18 | 7.05 | 45 | 47 |  |  |  |  |  |  |  |  |  | Cc1nonc1-c1nc2ccccc2n1Cc1ccncc1
19 | 7.43 | 9.6 | 12.6 | 10.1 | 12.9 (≈ 4.25 µg/mL) | 0.13 | 0.159 | 7.38 | 0.8 | 630 | 793 | 0.96 | Nc1nonc1-c1nc2c(F)ccc(F)c2n1Cc1cccnn1
